Results: ChEMBL document CHEMBL1201862, “PubChem BioAssay data set” (2004)
The source made the active and inactive calls.

Legend:
HEK293 [1] = assay: inhibition of NOD1-driven NF-kB reporter – cell-based, luminescence, uHTS, primary screen (AID 1578); format: functional; conditions: Homo sapiens
HEK293 [2] = assay: cells; format: functional, cell-based; conditions: Homo sapiens
HEK293 [3] = assay: cells; format: functional, cell-based; conditions: Homo sapiens; remark: listed apart in the source
[4] = target: Nucleotide-binding oligomerization domain-containing protein 2 (Homo sapiens, UniProt Q9HC29); assay: inhibition of NOD2-driven NF-kB reporter – cell-based, luminescence, uHTS, HEK293 (AID 1566); format: functional
HEK293 [5] = assay: NOD2 signaling inhibitors in MDP-stimulated cells, cell-based, uHTS, luminescence (AID 2001); format: functional; conditions: Homo sapiens
[6] = Trypanosoma cruzi growth suppression in host cells – NIH3T3 host cells, beta-gal luminescence, confirmation (AID 2044); format: functional, cell-based;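 further: intracellular parasites grown in NIH/3T3 mouse fibroblasts as host cells; luminescent beta-galactosidase reporter signal from transgenic T. cruzi replicating inside host cells; inhibitors lower the luminescence signal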
HEK293 [7] = assay: cells; format: functional, cell-based; conditions: Homo sapiens; remark: listed apart in the source
[8] = viability of PTEN-deleted HCT116 cells – cell-based, HCT116 PTEN knockout, dose response (AID 1047); format: functional;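 further: HCT116 colon tumor cells with PTEN knocked out; cells exposed to compound for 60 hours before readout; potency for loss of cell viability measured by luminescence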
[9] = viability of HCT116 lacking mutant beta-catenin – cell-based, human colon tumor, dose response (AID 1045); format: functional;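 further: HCT116 colon tumor cells with beta catenin knocked out; cells exposed to compound for 60 hours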
[10] = Luminescence Cell-Based Dose Retest to Confirm Inhibitors of Cancer Stem Cells. [Related pubchem assays (depositor defined):AID2717, AID2721]; format: functional; conditions: Homo sapiens
[11] = target: Neurotensin receptor type 1 (Homo sapiens, UniProt P30989); format: functional;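 further: Image-based confirmatory dose-response assay measuring agonist activity at NTR1; NTR1-expressing U2OS osteosarcoma cells imaged for beta-arrestin GFP spot formation; agonist potency where compounds increase beta-arrestin recruitment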
INS1 = assay: INS-1E survival protection against cytokine death – cell-based, luminescence, retest, dose response (AID 449756); format: functional; conditions: Rattus norvegicus;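 further: cell death triggered by IL-1 beta plus TNF-alpha plus IFN-gamma mixture; protective hits raise ATP signal compared with cytokine alone wells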
Estrogen receptor = target: T1, Estrogen receptor (Homo sapiens, UniProt P03372);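 further: potency for inhibiting coactivator peptide recruitment to the receptor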
T1 sequence (P03372 whole entry): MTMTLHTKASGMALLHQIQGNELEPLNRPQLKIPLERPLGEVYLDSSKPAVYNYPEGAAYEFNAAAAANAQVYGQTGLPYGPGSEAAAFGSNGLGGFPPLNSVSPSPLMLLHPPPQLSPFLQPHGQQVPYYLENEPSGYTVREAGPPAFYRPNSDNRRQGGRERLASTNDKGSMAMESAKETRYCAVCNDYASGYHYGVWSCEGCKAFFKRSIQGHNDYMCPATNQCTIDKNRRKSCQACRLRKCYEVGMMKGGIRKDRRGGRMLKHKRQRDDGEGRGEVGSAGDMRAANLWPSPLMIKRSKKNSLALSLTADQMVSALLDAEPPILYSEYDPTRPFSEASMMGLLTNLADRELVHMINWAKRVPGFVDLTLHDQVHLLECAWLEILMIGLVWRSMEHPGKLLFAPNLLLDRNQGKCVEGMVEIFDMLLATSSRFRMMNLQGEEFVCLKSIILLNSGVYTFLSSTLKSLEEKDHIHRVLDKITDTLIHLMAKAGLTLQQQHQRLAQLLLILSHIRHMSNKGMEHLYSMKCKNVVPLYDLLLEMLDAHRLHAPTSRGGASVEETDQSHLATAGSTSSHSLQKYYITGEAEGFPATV

[12] = target: G-protein coupled receptor 55 (Homo sapiens, UniProt Q9Y2T6); assay: selective activators of receptor GPR55 – imaging, U2OS cells, beta-arrestin-GFP redistribution, primary screen (AID 1961); format: functional
Mu-type opioid receptor = Mu-type opioid receptor (Homo sapiens, UniProt P35372); assay: SAR Analysis of Antagonists of the MOR Receptor using an Image-Based Assay - Set 3. [Related pubchem assays (depositor defined):AID1777, AID1785, AID1786, AID1966, AID2133, AID2136, AID2284, AID2285, AID2420]; format: functional
[13] = target: T2, Kappa-type opioid receptor (Homo sapiens, UniProt P41145); assay: SAR analysis of small molecule antagonists of the kappa opioid receptor via a luminescent beta-arrestin assay - Set 6. [Related pubchem assays (depositor defined):AID1777, AID1778, AID1785, AID1786, AID1966, AID2133, AID2136, AID2285]; format: functional
[14] = target: T2, Kappa-type opioid receptor; assay: SAR analysis of small molecule antagonists of the kappa opioid receptor via a luminescent beta-arrestin assay - Set 4. [Related pubchem assays (depositor defined):AID1777, AID1778, AID1785, AID1786, AID1966, AID2133, AID2136, AID2285]; format: functional
[15] = target: Delta-type opioid receptor (Homo sapiens, UniProt P41143); assay: SAR Analysis of Antagonists of the DOR Receptor using an Image-Based Assay - Set 3. [Related pubchem assays (depositor defined):AID1777, AID1785]; format: functional;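 further: U2OS cells expressing DOR1 and beta-arrestin GFP stimulated with 100 nM SNC80; imaging of GFP-tagged beta-arrestin moving into spots after receptor activation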
[16] = target: T2, Kappa-type opioid receptor; assay: SAR analysis of Antagonists of the Kappa Opioid Receptor (KOR) using an Image-Based Assay - Set 4. [Related pubchem assays (depositor defined):AID1777, AID1785]; format: functional
[17] = target: Alkaline phosphatase, placental type (Homo sapiens, UniProt P05187); assay: human placental alkaline phosphatase inhibition – biochemical, luminescence, confirmation (AID 1512); format: functional
[18] = target: T3, Alkaline phosphatase, tissue-nonspecific isozyme (Homo sapiens, UniProt P05186); assay: potency against alkaline phosphatase TNAP – biochemical, luminescent, dose response, SAR follow-up (AID 1056)
T3 sequence (P05186 whole entry): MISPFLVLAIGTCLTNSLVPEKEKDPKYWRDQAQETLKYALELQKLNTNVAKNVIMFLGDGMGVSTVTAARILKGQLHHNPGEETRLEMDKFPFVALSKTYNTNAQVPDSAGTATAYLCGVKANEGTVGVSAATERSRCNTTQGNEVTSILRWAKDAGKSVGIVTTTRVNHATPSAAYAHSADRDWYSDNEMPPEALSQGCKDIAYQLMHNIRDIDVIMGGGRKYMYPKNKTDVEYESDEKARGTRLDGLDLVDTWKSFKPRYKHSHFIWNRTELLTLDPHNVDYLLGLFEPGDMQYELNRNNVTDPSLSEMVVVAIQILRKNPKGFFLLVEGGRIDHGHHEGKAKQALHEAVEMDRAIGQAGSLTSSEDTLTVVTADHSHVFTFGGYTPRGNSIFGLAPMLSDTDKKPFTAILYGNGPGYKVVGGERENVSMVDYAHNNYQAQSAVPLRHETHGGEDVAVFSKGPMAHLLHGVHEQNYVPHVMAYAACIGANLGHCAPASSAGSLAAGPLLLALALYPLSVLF

T2 sequence (P41145 whole entry): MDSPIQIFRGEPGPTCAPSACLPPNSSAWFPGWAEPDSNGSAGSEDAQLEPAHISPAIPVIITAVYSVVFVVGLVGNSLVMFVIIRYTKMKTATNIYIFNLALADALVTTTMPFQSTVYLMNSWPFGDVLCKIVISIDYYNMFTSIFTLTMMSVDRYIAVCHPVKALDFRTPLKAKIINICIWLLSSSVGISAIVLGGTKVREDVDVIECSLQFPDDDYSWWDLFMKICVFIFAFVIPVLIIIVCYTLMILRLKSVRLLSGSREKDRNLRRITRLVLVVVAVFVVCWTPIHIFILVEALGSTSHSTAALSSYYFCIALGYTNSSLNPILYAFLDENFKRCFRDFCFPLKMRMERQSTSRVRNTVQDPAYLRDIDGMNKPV
Alkaline phosphatase, placental type, sequence (P05187 whole entry): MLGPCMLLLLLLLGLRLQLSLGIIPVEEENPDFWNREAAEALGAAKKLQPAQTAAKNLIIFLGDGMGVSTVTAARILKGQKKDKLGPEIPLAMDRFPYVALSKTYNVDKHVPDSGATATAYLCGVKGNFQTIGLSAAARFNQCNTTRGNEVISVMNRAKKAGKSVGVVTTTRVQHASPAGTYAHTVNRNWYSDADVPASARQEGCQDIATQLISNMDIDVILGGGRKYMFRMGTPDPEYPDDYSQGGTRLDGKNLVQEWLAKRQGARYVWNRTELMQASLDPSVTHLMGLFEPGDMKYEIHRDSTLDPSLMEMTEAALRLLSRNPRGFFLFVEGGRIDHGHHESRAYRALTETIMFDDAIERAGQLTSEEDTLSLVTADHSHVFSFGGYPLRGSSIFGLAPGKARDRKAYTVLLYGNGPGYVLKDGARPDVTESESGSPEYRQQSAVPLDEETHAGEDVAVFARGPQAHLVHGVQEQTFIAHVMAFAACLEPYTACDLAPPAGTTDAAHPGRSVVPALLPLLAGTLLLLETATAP
Mu-type opioid receptor, sequence (P35372 whole entry): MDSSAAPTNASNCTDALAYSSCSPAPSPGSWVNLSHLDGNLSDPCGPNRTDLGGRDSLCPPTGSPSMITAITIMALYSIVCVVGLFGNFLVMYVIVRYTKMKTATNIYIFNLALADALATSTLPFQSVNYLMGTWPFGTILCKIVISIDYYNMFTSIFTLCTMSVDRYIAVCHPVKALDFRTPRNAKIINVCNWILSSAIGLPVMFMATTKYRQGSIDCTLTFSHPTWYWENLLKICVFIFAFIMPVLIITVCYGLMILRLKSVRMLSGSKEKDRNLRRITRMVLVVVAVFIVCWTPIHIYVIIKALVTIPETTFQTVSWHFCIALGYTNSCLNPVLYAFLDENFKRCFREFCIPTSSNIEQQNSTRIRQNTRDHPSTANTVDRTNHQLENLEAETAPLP
Neurotensin receptor type 1, sequence (P30989 whole entry): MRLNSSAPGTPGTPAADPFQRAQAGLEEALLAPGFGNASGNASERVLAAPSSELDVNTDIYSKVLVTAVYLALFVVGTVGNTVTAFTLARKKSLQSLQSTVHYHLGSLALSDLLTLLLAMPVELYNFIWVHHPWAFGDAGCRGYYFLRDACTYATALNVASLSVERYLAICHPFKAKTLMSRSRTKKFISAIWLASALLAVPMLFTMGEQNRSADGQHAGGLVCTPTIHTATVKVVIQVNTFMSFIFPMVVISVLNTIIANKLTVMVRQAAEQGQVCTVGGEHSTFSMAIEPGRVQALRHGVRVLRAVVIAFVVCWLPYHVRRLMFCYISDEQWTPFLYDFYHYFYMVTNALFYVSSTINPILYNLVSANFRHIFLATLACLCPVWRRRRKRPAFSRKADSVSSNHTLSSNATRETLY
G-protein coupled receptor 55, sequence (Q9Y2T6 whole entry): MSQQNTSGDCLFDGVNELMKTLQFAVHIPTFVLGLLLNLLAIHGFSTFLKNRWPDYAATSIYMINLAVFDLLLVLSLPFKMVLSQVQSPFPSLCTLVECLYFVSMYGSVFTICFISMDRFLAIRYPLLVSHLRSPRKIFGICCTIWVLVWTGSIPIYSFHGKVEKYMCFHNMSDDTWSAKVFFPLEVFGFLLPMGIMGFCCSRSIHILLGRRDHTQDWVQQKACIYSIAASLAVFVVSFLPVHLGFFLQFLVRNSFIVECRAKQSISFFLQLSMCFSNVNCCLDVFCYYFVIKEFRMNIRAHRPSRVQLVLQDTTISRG
Nucleotide-binding oligomerization domain-containing protein 2, sequence (Q9HC29 whole entry, the tested form may be a part): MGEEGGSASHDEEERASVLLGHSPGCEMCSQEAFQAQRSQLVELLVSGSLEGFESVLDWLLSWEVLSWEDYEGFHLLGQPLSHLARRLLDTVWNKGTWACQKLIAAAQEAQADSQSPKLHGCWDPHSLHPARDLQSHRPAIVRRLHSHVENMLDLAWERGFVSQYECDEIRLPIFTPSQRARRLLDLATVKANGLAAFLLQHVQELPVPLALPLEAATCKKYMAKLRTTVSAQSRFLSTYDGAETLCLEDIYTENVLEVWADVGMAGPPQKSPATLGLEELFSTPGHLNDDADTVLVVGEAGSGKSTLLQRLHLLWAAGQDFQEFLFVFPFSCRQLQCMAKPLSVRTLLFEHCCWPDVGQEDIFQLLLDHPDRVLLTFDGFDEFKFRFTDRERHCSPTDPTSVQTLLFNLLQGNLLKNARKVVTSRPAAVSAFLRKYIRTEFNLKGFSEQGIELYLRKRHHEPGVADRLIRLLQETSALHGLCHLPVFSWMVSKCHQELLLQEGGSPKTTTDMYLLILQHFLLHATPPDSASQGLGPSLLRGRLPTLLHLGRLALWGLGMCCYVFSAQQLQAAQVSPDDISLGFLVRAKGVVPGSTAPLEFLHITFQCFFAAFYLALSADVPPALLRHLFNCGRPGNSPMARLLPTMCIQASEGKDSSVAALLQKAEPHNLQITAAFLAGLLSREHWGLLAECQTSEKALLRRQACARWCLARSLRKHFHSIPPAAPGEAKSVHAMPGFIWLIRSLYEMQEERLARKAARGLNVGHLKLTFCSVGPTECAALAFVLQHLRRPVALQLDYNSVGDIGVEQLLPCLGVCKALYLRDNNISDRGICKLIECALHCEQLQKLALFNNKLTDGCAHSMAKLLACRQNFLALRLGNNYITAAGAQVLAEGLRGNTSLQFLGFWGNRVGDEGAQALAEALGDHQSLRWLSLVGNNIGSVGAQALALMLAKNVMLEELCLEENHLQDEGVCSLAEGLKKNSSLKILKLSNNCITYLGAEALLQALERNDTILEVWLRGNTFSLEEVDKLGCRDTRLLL
Delta-type opioid receptor, sequence (P41143 whole entry): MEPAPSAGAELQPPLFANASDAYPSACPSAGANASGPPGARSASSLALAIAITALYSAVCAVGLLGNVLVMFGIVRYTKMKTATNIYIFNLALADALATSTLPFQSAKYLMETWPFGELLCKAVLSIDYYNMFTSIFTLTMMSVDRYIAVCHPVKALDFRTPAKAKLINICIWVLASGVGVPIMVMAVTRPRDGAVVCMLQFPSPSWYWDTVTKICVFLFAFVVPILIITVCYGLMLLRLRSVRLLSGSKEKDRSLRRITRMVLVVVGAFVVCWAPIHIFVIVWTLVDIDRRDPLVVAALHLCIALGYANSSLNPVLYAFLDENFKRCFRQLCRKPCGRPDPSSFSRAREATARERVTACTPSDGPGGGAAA

SMILES: O=C(/C(=C/c1cccc(Cl)c1)c1nc2ccccc2[nH]1)c1ccccc1
- EC50 (HEK293 [1]): > 20 µM (inactive)
- IC50 (HEK293 [2]): 1.63 µM (active)
- IC50 (HEK293 [3]): 13.4 µM (active)
- EC50 [4]: > 20 µM (inactive)
- IC50 (HEK293 [5]): 3.14 µM (active)
- EC50 [6]: 0.755 µM (active)
- IC50 (HEK293 [7]): > 20 µM (inactive)
- EC50 [8]: 3.93 µM (active)
- EC50 [9]: 3.7 µM (active)
- AC50 [10]: 1.97 µM (active)
- EC50 [11]: 8.48 µM (active)
- AC50 (INS1): 4.22 µM (active)

SMILES: CCc1nnc2n1N=C(c1ccc(-c3cc(Cl)ccc3Cl)o1)CS2
- IC50 (Estrogen receptor): 44 µM (not active)
- EC50 [8]: 27.1 µM (active)
- EC50 [9]: 95.9 µM (active)
- EC50 [12]: 0.734 µM (active)

SMILES: Cc1ccc(S(=O)(=O)NCc2ccc(C(=O)NCCN3CCc4ccccc4C3)cc2)cc1
- IC50 (Mu-type opioid receptor): > 32 µM (inactive)
- IC50 [13]: > 20 µM (inactive)
- IC50 [14]: > 20 µM (inactive)
- IC50 [15]: > 32 µM (inactive)
- IC50 [16]: 5.98 µM (active)

SMILES: O=C(Cn1ccnc1)c1ccc(O)c(O)c1
- IC50 [17]: 5.37 µM (active)
- IC50 [18]: > 100 µM (inactive)
